The data set can be described thus: in vitro. Particulars: human, hepg2-a16-cd81egfp cells.

For the compound `O=C(Nc1ccc(C(F)(F)F)cc1)N1CCN(c2ccnc3cc(Cl)ccc23)CC1` [MLS000830170], where the note is “% viability”, the viability (commonly a read-out of living cells in per cent, often relative to untreated cells) at 3 µM stood at 90.8%.
Regarding `COc1ccc(-n2nc(C(=O)NCC(=O)N3CCN(c4ccccc4OC)CC3)c3ccccc3c2=O)c(OC)c1` [MLS000936211], for the setting “% viability”, the viability at 3 µM worked out at 90.4%.
Take `Cc1ccc(C(=O)N/N=C/c2ccc([N+](=O)[O-])s2)cc1` [MLS000519463]: the viability at 3 µM (% viability) is 95.4%.
Regarding `N#Cc1c2c(c(NCc3ccco3)n3c1nc1ccccc13)CCC2` [MLS000109113], for the setting “% viability”, the viability at 3 µM turned out to be 97.7%.
The same measure, in the same setting: with `Cc1cc(Nc2ccc(Br)c(C)c2)n2nc(C)nc2n1` [MLS000116638] the figure was 87.3%; with `COc1ccc(OC)c(-n2c(S)nnc2-c2ccc(O)cc2O)c1` [MLS000766628], 104%.
The same measure, in the same setting: the value for `O[C@H]1[C@H](NCC2CCCCC2)[C@H]2CO[C@H](O2)[C@@H]1N1CCC(Cc2ccccc2)CC1` [NCGC00394729] was 99.2%.
Same read-out and setting: with `Cc1ccc(Nc2cc(C)nc(NCc3ccccc3)n2)cc1` [MLS000574704] the figure was 80.6%; with `Cc1nc2ccc(NC(=O)c3cc(S(=O)(=O)N(C)c4ccccc4)ccc3Cl)cc2s1` [MLS000393823], 59.7%.
For the compound `Cc1ccc(C(=O)Nc2nc(-c3ccccn3)cs2)cc1[S+](=O)([O-])N1CCOCC1` [NCGC00345210], the viability at 3 µM (% viability) amounted to 29.5%.
Regarding `COc1ccc(NC(=O)C(c2ccc(Cl)cc2)C(C)C)cn1` (stereo not drawn) [MLS001149289], where the note is “% viability”, the viability at 3 µM is 88.5%.
On the same count and under the same terms, with `COc1ccc(-n2nc3c(c2NC(=O)CCl)CSC3)cc1` [MLS001066697] the figure was 98.9%; with `COc1cc(C2NCc3ccccc3-n3cccc32)ccc1O` (stereo not drawn) [MLS000047988], 102%; with `COc1cc(OC)c(NC2=CC(=O)C(=O)c3ccccc32)cc1Cl` [MLS001198657], 62%.
The same measure, in the same setting: the value for `CCN(CC)c1ccc(NC(=O)COc2ccccc2C#N)cc1S(=O)(=O)Nc1ccccc1OC` [MLS000339599] was 97.1%.
The same measure, in the same setting: the value for `O=S1(=O)N(CCN2CC=C(c3c[nH]c4cc(F)ccc34)CC2)c2cccc3c2N1CCC3` [NCGC00015600] was 76.3%; that for `CCOc1cccc(CNCCc2c(C)[nH]c3ccc(OC(F)(F)F)cc23)c1O` [MLS001198351] was 70.5%.
`Cc1ccc(Sc2ccc(NC(=O)CCl)cc2)cc1C` [MLS000334846]: the viability at 3 µM (% viability) came to 93.9%.
Consider `CCOc1ccccc1NC(C)C(=O)Nc1cc(C(F)(F)F)ccc1N1CCOCC1` (stereo not drawn) [MLS000336343], for which the viability at 3 µM (% viability) turned out to be 99.6%.
With `O=C1c2ccccc2-n2c1nc1ccccc1c2=O` [MLS001049121], the viability at 3 µM (% viability) was found to be 81.6%.
On the same count and under the same terms, the value for `CCC(=O)Nc1cc(=O)[nH]c2nc(-c3ccc(Cl)cc3)nn12` [MLS000779210] was 92%; that for `CCCC(C)C(=O)Nc1ncc(S(=O)(=O)c2ccc([N+](=O)[O-])cc2)s1` (stereo not drawn) [MLS001034555] was 94%.
As for `COc1cc2ccccc2cc1C(=O)N1CCCC(C(F)(F)F)C1` (stereo not drawn) [MLS002180647], where the note is “% viability”, the viability at 3 µM came to 86%.
Same read-out and setting: the value for `C/C(=N\Nc1nc(-c2ccccc2O)nc2ccccc12)c1ccccc1` [MLS000714167] was 93.6%; that for `Oc1cccc(Nc2nc(NCC3CCCO3)c3ccccc3n2)c1` (stereo not drawn) [MLS000026845] was 95.5%.
On the same count and under the same terms, with `O=C(CCl)Nc1cccc(-c2cnc3ccccc3n2)c1` [MLS000541295] the figure was 88.6%; with `CC(NCc1ccccc1O)C12CC3CC(CC(C3)C1)C2` (stereo not drawn) [MLS001173343], 97.5%.
On the same count and under the same terms, the value for `Clc1ccc2c(N/N=C/c3ccc(Br)cc3)ccnc2c1` [MLS000589586] was 104%; that for `COc1ccc2[nH]c(C)c(CCN(Cc3cccs3)C(S)=Nc3ccccc3)c2c1` [MLS000529828] was 86.8%; that for `N#Cc1cc(C#N)c(N2CCN(c3cccc(Cl)n3)CC2)nc1N` [MLS000325470] was 99.6%.
With `CCOC(=O)c1nc2cc3n(c(CC(C)C)c-2c1C)CC(C)=C3C` [MLS000594428], under “% viability”, the viability at 3 µM was determined as 105%.
Still for that read-out and setting: with `CCOc1ccc(-n2c(SCC(N)=O)nc3sc4c(c3c2=O)CCN(C)C4)cc1` [MLS000332254] the figure was 95.7%.
Consider `C=C1C(=O)O[C@@H]2C[C@@H](C)[C@@H]3C=CC(=O)[C@@]3(C)[C@@H](OC(=O)CC(=O)O[C@H]3[C@@H]4C(=C)C(=O)O[C@@H]4C[C@@H](C)[C@@H]4C=CC(=O)[C@]43C)[C@H]12` [MLS000728515], for which the viability at 3 µM came out at 16.4%.
Turning to `CC(=O)N(C)C1=C(N2CCOCC2)C(=O)c2ccccc2C1=O` [MLS000570886], the viability at 3 µM (% viability) was determined as 96.1%.
On the same count and under the same terms, with `COc1ccc(Nc2cc(O)c3ncccc3c2)cc1` [NCGC00183797] the figure was 69%.
Same read-out and setting: with `C/C(=N\NC(=O)c1ccccc1OCc1ccc(F)cc1)c1ccccn1` [MLS002162875] the figure was 82%; with `COc1cc2nc(Nc3ccc(C)c(C)c3)nc(N)c2cc1OC` [MLS001199689], 102%.
Same read-out and setting: the value for `COc1ccc2nc(N3CCN(C(=O)c4ccc([N+](=O)[O-])o4)CC3)sc2c1` [MLS001234236] was 89.3%; that for `COc1ccc(Nc2cc(C)nc(NCc3ccccc3)n2)cc1` [MLS000768693] was 83%.
`CCOC(=O)c1c(CN(C)C)n(-c2ccc(C)cc2)c2cc(Br)c(O)cc12` [MLS000705141]: the viability at 3 µM (% viability) came out at 97.3%.
For the compound `COc1ccc([C@@]2(C(C)C)ON(c3ccccc3C(F)(F)F)C2=O)cc1` [MLS002206606], the viability at 3 µM (% viability) came out at 83.8%.
Still for that read-out and setting: the value for `O=C(Nc1ncccc1O)c1ccc(S(=O)(=O)Nc2ccccc2)cc1` [MLS001099437] was 94.2%; that for `O=C(NC(c1ccccc1)c1cc(Cl)c2cccnc2c1O)c1cccnc1` (stereo not drawn) [MLS000573359] was 69.7%.
On the same count and under the same terms, with `CCOC(=O)c1nnn(-c2nonc2N)c1-c1ccc(Br)cc1` [MLS000727795] the figure was 96.5%; with `Cc1ccnc(NC(=O)c2cccc(S(=O)(=O)N3CCCc4ccccc43)c2)c1` [MLS001159724], 89.6%; with `Cc1ccc(Nc2cc(C)c3ccc(O)cc3n2)cc1C` [MLS000674791], 92.2%.
On the same count and under the same terms, with `CC1CCN(c2ccc(C(=O)NCc3ccco3)cc2[N+](=O)[O-])CC1` [MLS000389854] the figure was 91.2%; with `CCN(CC)CCOC(=O)c1ccc(N/C=C(/C#N)c2nc(-c3ccc4c(c3)OCO4)cs2)cc1` [MLS000769346], 100%; with `CCOC(=O)C1CCN(C(=O)c2cc(C(C)(C)C)nn2Cc2ccccc2)CC1` [MLS000860456], 90.8%.
With `COc1ccc(/C=N/Nc2cc(C)nc(-n3nc(C)cc3C)n2)c(OC)c1` [MLS000589396], under “% viability”, the viability at 3 µM was 91%.
For the compound `COc1cc(Cl)c(NC2=CC(=O)C(=O)c3ccccc32)c(OC)c1` [MLS001360325], the viability at 3 µM (% viability) came to 65.1%.
Regarding `COc1ccc2nc(C)cc(NCc3cccc(C(F)(F)F)c3)c2c1` [MLS001174340], the viability at 3 µM (% viability) worked out at 95.4%.
The same measure, in the same setting: the value for `O=C(N/N=C(/c1ccccc1)c1cccnc1)c1cccc(F)c1` [MLS001224623] was 32%; that for `Cc1nn2c(c1-c1ccccc1-c1ccccc1)N(CCC(C)C)CCC2` [NCGC00420437] was 15.3%.
Same read-out and setting: the value for `FC(F)(F)c1cccc(Nc2nc3nonc3nc2Nc2ccc(Cl)cc2)c1` [NCGC00100377] was 47.1%; that for `Clc1ccc(CCC(Cn2ccnc2)Sc2c(Cl)cccc2Cl)cc1` (stereo not drawn) [NCGC00179596] was 100%.
In the case of `CC(C(=O)N1CCCC1)N1CCN(S(=O)(=O)c2ccc(C(C)(C)C)cc2)CC1` (stereo not drawn) [MLS002156464], for the setting “% viability”, the viability at 3 µM came out at 92.8%.
On the same count and under the same terms, the value for `Cc1ccc(NC2=C/C(=N\S(=O)(=O)c3cccs3)c3ccccc3C2=O)cc1C` [MLS000585841] was 81.7%; that for `O=C1C(=O)c2ncccc2-c2cccnc21` [NCGC00160369] was 24.2%; that for `Cc1ccnc2nc(C(=O)Nc3cc(Cl)ccc3N3CCOCC3)nn12` [MLS000567033] was 98.5%.
Turning to `Cc1ccccc1C1C(C#N)=C2N=C(N)c3c(sc4c3CCCCC4)N2C2=C1C(=O)CCC2` (stereo not drawn) [MLS000543544], the viability at 3 µM (% viability) worked out at 92.6%.
Still for that read-out and setting: the value for `CCOC(=O)C1CCN(Cc2cc(Cl)c3ccccc3c2O)CC1` [MLS001171913] was 87.1%; that for `CC1(C)N=C(N)N=C(N)N1c1ccc(OCCCOc2ccccc2)c(Cl)c1` [MLS000738223] was 34.6%.
On the same count and under the same terms, with `CC(Oc1ccc(F)cc1)C(=O)Nc1cc(C(F)(F)F)ccc1-n1cncn1` (stereo not drawn) [MLS001160637] the figure was 101%.
Turning to `O=C(Nc1nc(-c2ccccn2)cs1)c1cccc(S(=O)(=O)N2CCOCC2)c1` [MLS002161290], the viability at 3 µM (% viability) is 62.2%.
On the same count and under the same terms, with `C=C(C)COc1ccc(-c2n[nH]cc2-c2ccc(OC)c(OC)c2)c(O)c1` [MLS000084580] the figure was 42.4%.
On the same count and under the same terms, the value for `COc1cc(C(=O)OCC(=O)N2CCCCC2C)cc(NC(=O)c2cccs2)c1OC` (stereo not drawn) [MLS001003405] was 97.3%.
Still for that read-out and setting: the value for `Cc1ccc(-c2nn(-c3ccccc3)c3[nH]c(=O)c(CNCc4ccccc4)cc23)cc1` [MLS000067457] was 95.4%; that for `Oc1ccc(-c2ccccc2)cc1CN1CCCCCC1` [MLS001195126] was 104%.
For the compound `CCCC(=O)NC(c1ccc(OC)cc1)c1ccc2cccnc2c1O` (stereo not drawn) [MLS000715379], under “% viability”, the viability at 3 µM is 59.7%.
Same read-out and setting: with `Cc1ccc(C(=O)Nc2nc(-c3ccccn3)cs2)cc1S(=O)(=O)N1CCOCC1` [MLS002157637] the figure was 58.9%; with `Cc1ccc(-[n+]2c(-c3ccc(Cl)cc3)cn3c2CCC3)cc1` [MLS000780005], 90.4%; with `CCN1CCN(Cc2ccc(NC(=O)c3cc(NC(=O)c4cc5cccc(OC)c5o4)cc(OC)c3)cc2C(F)(F)F)CC1` [MLS000911573], 94.8%.
On the same count and under the same terms, the value for `COc1ccccc1CNCC(O)Cn1c2ccccc2c2ccccc21` (stereo not drawn) [MLS000391556] was 92.6%.
Same read-out and setting: the value for `O=C(CCCCCCC(=O)Nc1ccccc1)NO` [NCGC00168085] was 45.6%.

(Values after PMC7822874, “Chemoprotective antimalarials identified through quantitative high-throughput screening of Plasmodium blood and liver stage parasites” (Scientific Reports, 2021).)
